Reference: US11793792B2, “Composition for prevention and treatment of hair growth disorders” (GIULIANI S.P.A., priority 2018, dated 2023)

What was measured:
[1] = tested on: Lef1; assay: LEF1 mRNA expression (RT-PCR) in Human Follicle Dermal Papilla Cells (HFDPC); type: cell-based; settings: 24 h incubation; for Lef1 fold of change mRNA expression: normalized to GAPDH, relative to untreated calibrator (vehicle = 1)
Source text: In the present test, Hair cell line (derma papilla cells) were used rather than human hair follicle, as in the experiment of Example 4.
We evaluated the stimulation of Lef1 (marker of hair growth) and we retested compound 1 and compound 5 and we use also included the compound WAY-316660, a relatively non-toxic specific antagonist of SFRP1, which has already been used for the treatment of osteoporosis, for its known hair growth promotion activity (Rif. Hawkshaw et al. Plos Biol, 2018; https://journals.plos.org/plosbiology/article?id=10.1371/journal.pbio.2003705).
Biological Model Human Follicle Dermal Papilla Cells (HFDPC)
The cell line was cultured in Follicle Dermal Papilla Cell medium in 25 cm^2 culture flasks at 37° C., 5% CO2. Every two days confluent cultures were splitted 1:3-1:6, after washing with PBS 1× (without Ca2+ and Mg2+), using Trypsin/EDTA and seed at 2-5·10^4 cell/cm^2, 37° C., 5% CO2.
The expression of LEF1 was investigated by RT-PCR. The analysis was performed according to the reported method (Gibson et al, 1996; Heid et al, 1996) using TaqMan Gene Expression Assay supplied by Applied Biosystems. Briefly, within a gene-specific PCR oligonucleotide primer pair, an oligonucleotide probe labelled with a reporter fluorescent dye (FAM) at the 50-end and a quencher fluorescent dye (TAMURA) at the 30-end was designed. When the probe was intact, the reporter dye emission was quenched. During the extension phase of the PCR cycle, the nucleolytic activity of the DNA polymerase cleaved the hybridization probe and released the reporter dye from the probe. Fluorescence intensity produced during PCR amplifications was monitored by a sequence detector directly in the reaction tube (“real time”). A computer algorithm compared the amount of reporter dye emission with the quenching dye emission and calculated the threshold cycle number (CT) when signals reached ten times the standard deviation of the baseline, from which the levels of the mRNAs transcribed from the various genes tested were obtained (Gibson et al, 1996).
Gene expression analysis involves four following step: • 1. Treatments of cells with active compounds for 24 h; • 2. RNA extraction; • 3. cDNA retro transcription; • 4. Quantitative RT-PCR; Day 1: Seed cells
When the cells (Human Follicle Dermal Papilla Cells) reached approximately 80% confluence, they were harvested with trypsin/EDTA and seeded at a density of 1×10^6 cells/ml into 12-well plates and then incubated at 37° C., 5% CO2 (24 h).
When the cells reached approximately 80% confluence, complete medium was removed; cells were washed once with PBS 1× and the incubated in Human Follicle Dermal Papilla Cells at 37° C., 5% CO2 for at least 24 h;
Compounds to be tested (WAY316606, 1, 5, 7, 17, 18, 20, 21, 24) were dissolved in DMSO and diluted at final concentration in Human Follicle Dermal Papilla Cells.
Cells were then incubated at 37° C., 5% CO2 for different 24 h.
Total RNAs were extracted from the cells using Tri Reagent (Thermo Fisher), that is a single, homogenous solution for the isolation of total RNA. This procedure is an improvement of the single-step method reported by (Chomczynski and Mackey, 1995) for total RNA isolation. Tri Reagent, a mixture of guanidine thiocyanate and phenol in a monophase solution, effectively dissolves DNA, RNA, and protein on homogenization or lysis of tissue sample and contains a unique combination of denaturants and RNase inhibitors and is used in a convenient, single-step disruption/separation procedure.
Total RNA, extracted and quantified, was amplified using the “PRIME SCRIPT RT reagent kit (Perfect Real time) (Takara).
For amplification we used the Real time PCR System Mx3000P (Stratagene) and each total RNA was amplified in duplicate.
The RT-PCR analysis was set, using TaqMan linear probes (Applied Biosystems). Those probes are the most widely used and published detection chemistry for qPCR applications. […]

[2] = tested on: Lef1; assay: Lef1 gene expression (qRT-PCR) in human hair follicle organ culture; type: cell-based; settings: microdissected human anagen VI scalp hair follicles; 15 μM; treated 6 hours; normalized on GAPDH; vehicle = 1; N=8 HFs/group from 1 donor
Description: Evidence of the activity of compounds of the invention is provided by the expression of Lymphoid enhancer binding factor-1 (Lef1), which plays an important role in bulge stem cells cell growth and differentiation (International Journal of Medical Sciences 2013; 10 (6):738-746).
These products were reconstituted in DMSO (stock solution) and intermediate or working solutions were prepared diluting the stock or the intermediate solution in William's E medium. […]
RNA was extracted from hair follicles with RNeasy kit (Qiagen, USA), and reverse transcribed with Tetro cDNA synthesis kit (Bioline) according to manufacturer's instructions. qPCR was performed in QuantStudio3 (Thermo Fisher) with Taqman probe for Axin2 (Hs00610344_m1, Thermo Fisher), Lef1 (Hs01547250_m1, Thermo Fisher), b-actin (Hs01060665_g1, Life Technologies) and Gapdh (Hs02758991_g1, Thermo Fisher). Expression levels were calculated with the delta-delta CT method. […]

SMILES	effect on LEF1 mRNA expression / activity (in words) [1]	effect on LEF1 mRNA expression / activity (in words) ([1]; listed as 1)	Lef1 fold of change mRNA expression [1]	genic expression of Lef1 (mRNA), mean [2]	effect on LEF1 mRNA expression / activity (in words) ([1]; listed as 5)
COC(=O)c1c(NC(=O)CC2SC(=N)NC2=O)sc(C)c1C (centres unmarked) [Compound C1, 2-(2-(2-Imino-4-oxo-thiazolidin-5-yl)-acetylamino)-4,5-dimethyl-thiophene-3-carboxylic acid methyl ester]	more active	major induction of Lef1	8.43	3.425	
CCOC(=O)c1c(NC(=O)CC2SC(=N)NC2=O)sc(C)c1C (centres unmarked) [Compound C5, 2-(2-(2-Imino-4-oxo-thiazolidin-5-yl)-acetylamino)-4,5-dimethyl-thiophene-3-carboxylic acid ethyl ester]	more active		6.05	6.134	major induction of Lef1
CCOC(=O)c1c(NC(=O)CC2SC(=N)NC2=O)sc(Br)c1C (centres unmarked) [Compound C7]	more active		2.46		
COC(=O)c1ccsc1NC(=O)CC1SC(=N)NC1=O (centres unmarked) [Compound C17]	more active		2.52		
COC(=O)c1cc(-c2ccccc2)sc1NC(=O)CC1SC(=N)NC1=O (centres unmarked) [Compound C18]			1.56		
CCOC(=O)c1c(NC(=O)CC2SC(=N)NC2=O)sc(C)c1-c1ccccc1 (centres unmarked) [Compound C20]			1.39		
CCOC(=O)c1c(C2CC2)csc1NC(=O)CC1SC(=N)NC1=O (centres unmarked) [Compound C21]			1.79		
N=C1NC(=O)C(CC(=O)Nc2scc(C3CCC3)c2C(N)=O)S1 (centres unmarked) [Compound C24]			1.88		
O=S(=O)(NC1CCNCC1)c1cc(S(=O)(=O)c2ccccc2)ccc1C(F)(F)F [WAY-316606, reference compound]			2.18		
